Test results as given in patent US10611748B2, “Xanthone derivatives for the treatment of hepatitis B virus disease” (Hoffmann-La Roche Inc., priority 2017, dated 2020).

Key:
[1] = system: cccDNA level in HepDES19 cells; test: cccDNA Southern Blot assay; assay type: cell-based, HBV; settings: 5 days' compound treatment, Hirt DNA, serial dilutions
Experimental: HepDES19 cells were seeded at 4×10^6 cells per T150 in the culture medium (Dulbecco's Modified Eagle Medium: Nutrient Mixture F-12 (DMEM:F12, Gibco Cat. 11320-82), 10% Fetal Bovine Serum (FBS, Clontech Cat. 631101), 0.1 mM Non-Essential Amino Acids Solution (NEAA, Gibco Cat. 11140-050), […] Penicillin-Streptomycin (PS, Invitrogen Cat. 15140-163), 500 μg/mL Geneticin (G418, Invitrogen Cat. 10131-027) in the absence of Tet for 8 days. These cells were seeded at the density of 1×10^6 cells per well in 6-well plate. At 24 hrs after seeding, serial dilutions of compounds made with DMSO (Sigma, Cat. D2650) were further diluted with the same culture medium as described above before they were added to the cells to reach desired final compound concentrations and 1% DMSO concentration. After 5 days' compound treatment, the cells growing in one well from 6-well plate were re-suspended with 500 μL re-suspension buffer (50 mM tris[hydroxymethyl]aminomethane pH 7.5), 10 mM ethylenediaminetetraacetic acid (EDTA), 50 μg/mL RNase A (Qiagen, Cat. 158922). 500 μL of 1.2% sodium dodecyl sulfate (SDS) was then added into the re-suspended cells to lyse the cells. After 15 minutes' incubation, 700 μL precipitation buffer (3M cesium chloride, 1M potassium acetate, 0.67M acetic acid) was added and the lysate was incubated at 4° C. for 2 h. The lysate was centrifuged at 15000 revolutions per minute (RPM) at 4° C. for 15 minutes. The supernatant was collected and loaded onto Qiagen miniprep columns (QIAprep spin Mini prep kit, Cat. No. 27016). After centrifugation for 1 minute at 15000 RPM, the column was washed once with 750 µL wash buffer PE from QIAprep spin Mini prep kit. 80 μL of double distilled water was loaded to the columns to elute Hirt DNA.
Hirt DNA of each sample was loaded into 1.2% lx tris-acetate electrophoresis (TAE) agarose gel and separated at 90 voltages for 3 hours. The gel was then treated in 50 mM NaAc—HAc, pH4.2 for 30 min at room temperature (RT), and then denatured by soaking in denaturation buffer (0.5 M sodium hydroxide, 1.5 M sodium chloride) at RT for 30-45 min. The gel was then treated with neutralization buffer (1M tris[hydroxymethyl]aminomethane pH7.4 and 1.5M NaCl) at RT for 30 to 45 min.
The gel was transferred onto a pre-wet Nylon membrane (GE life science, Hybond N+) by capillary transfer method overnight, followed by UV crosslinking. The membrane was transferred into a hybridization tube, then rinsed with double distilled water at 60° C. for 5 mins. 10 mL of hybridization buffer (Lab kits, China) was added, the resulting sample was rotated in hybridization oven at 60° C. for 1 hour. Digoxigenin (DIG)-labelled HBV probe (SEQ ID NO: 1) was denatured at 95° C. for 10 minutes, and then 7 μL of denatured probe was added to the hybridization tube, which was rotated in hybridization oven at 60° C. overnight.
On the second day, the membrane was washed according to the procedure of DIG wash and block buffer set kit (Roche, Cat. 11 585 762 001), and then incubated with 50 mL antibody solution (Antibody anti-Digoxigenin-AP Fab fragment (Roche Cat. 11093274910) diluted in fresh 1× blocking buffer at 1:10,000) for 1 hour. The membrane was washed with 50 mL washing buffer (1× Maleic buffer with 0.3% Tween-20) for 15 minutes twice, and equilibrated with 20 mL detection buffer (0.1M tris[hydroxymethyl]aminomethane pH9.5, 0.1M sodium chloride) for 5 minutes. CDP-Star substrate (Roche, Cat. 12041677001) was added to the membrane for 5 minutes, and then the membrane was scanned by Bio-Rad Visualize Image System (Biorad, ChemiDoc-MP, Serial No. 731BR00916).

[2] = system: extracellular HBeAg level (surrogate marker for cccDNA) in HepDES19 cells; test: HepDES19 primary screen assay; assay type: cell-based, HBV; settings: Hepatitis B virus, 120 h, 5 days compound incubation, HBeAg ELISA
Source text: The assay was employed to primarily screen for novel cccDNA inhibitors. HepDES19 is an engineered cell line which contains a 1.1 unit length HBV genome, and pgRNA transcription from the transgene is controlled by Tetracycline (Tet). In the absence of Tet, pgRNA transcription will be induced, but HBV e antigen (HBeAg) could not be produced from this pgRNA due to the fact that the very short leader sequence before the HBeAg start codondisrupted the start codon. Only after cccDNA is formed, the missing leader sequence and start codon mutation would be restored from the 3′-terminal redundancy of pgRNA, and then HBeAg could be synthesized. Therefore, HBeAg could be used as a surrogate marker for cccDNA (Zhou, T. et al., Antiviral Res(2006), 72(2), 116-124; Guo, H. et al., J. Virol (2007), 81(22), 12472-12484).
HepDES19 cells were seeded at 2×10^6 cells per T150 flask and cultured with the culture medium (Dulbecco's Modified Eagle Medium: Nutrient Mixture F-12 (DMEM:F12, Gibco Cat. 11320-82), 10% Fetal Bovine Serum (FBS, Clontech Cat. 631101), 0.1 mM Non-Essential Amino Acids Solution (NEAA, Gibco Cat. 11140-050), 50 μg/mL Penicillin-Streptomycin (PS, Invitrogen Cat. 15140-163), 500 μg/mL Geneticin (G418, Invitrogen Cat. 10131-027) containing 3 μg/mL Tet (Sigma, Cat. 87128) for 5 days. Cells were then seeded at 4×10^6 cells per T150 in the same culture medium as described above in the absence of Tet for 8 days. Cells were then harvested and frozen at density of 2×10^6 cells per mL. For compound testing, the frozen cells were thawed and seeded into 96-well plates at a density of 6×10^4 cells per well. At 24 hrs after seeding, half log serial dilutions of compounds made with Dimethyl sulfoxide (DMSO, Sigma, Cat. D2650) were further diluted with the same culture medium as described above before they were added to the cells to reach desired final compound concentrations and 1% DMSO concentration. Plates were then incubated at 37° C. for another 5 days before measurement of HBeAg level and cell viability. Extracellular HBeAg level were measured with enzyme-linked immunosorbent assay (ELISA) kit (Shanghai Kehua Diagnostic Medical Products Co., Ltd). Cell viability was assessed using Cell Counting Kit-8 (Donjindo, Cat. CK04-20). IC50 values were derived from the dose-response curve using 4 parameter logistic curve fit method.
The compounds of the present invention were tested for their capacity to inhibit extracellular HBeAg level as described herein.

O=C(O)C1CCN(c2ccc3c(=O)c4cccc(Br)c4oc3c2)C1 (centres unmarked) [Example 7, 1-(5-bromo-9-oxo-xanthen-3-yl)pyrrolidine-3-carboxylic acid]
cccDNA level in HepDES19 cells (Southern Blot) [1]: dose-dependently reduced cccDNA level
IC50 [2]: 3.56 µM
